Measured values published in US10385048B2, “Pesticidally active polycyclic derivatives with sulfur containing substituents” (Syngenta Participations AG, priority 2014, dated 2019).

Key:
Type in all cases: in vivo
Euschistus heros = Euschistus heros (neotropical brown stink bug), soybean leaves, N2 nymphs; conditions: 120 h, application rate 200 ppm, 5 days after infestation, read-out: effect in at least one of the two categories (mortality or growth inhibition)
Description: Example B3: Euschistus heros (Neotropical Brown Stink Bug)
Soybean leaves on agar in 24-well microtiter plates were sprayed with aqueous test solutions prepared from 10′000 ppm DMSO stock solutions. After drying the leaves were infested with N2 nymphs. The samples were assessed for mortality and growth inhibition in comparison to untreated samples 5 days after infestation.

[1] = system: Frankliniella occidentalis; test: Frankliniella occidentalis (western flower thrips) feeding/contact activity, sunflower leaf discs; conditions: foliar, 168 h, application rate 200 ppm, population of mixed ages, 7 days after infestation
Description: Example B4: Frankliniella occidentalis (Western Flower Thrips): Feeding/Contact Activity
(§1) Sunflower leaf discs were placed on agar in 24-well microtiter plates and sprayed with aqueous test solutions prepared from 10′000 DMSO stock solutions. After drying the leaf discs were infested with a Frankliniella population of mixed ages. The samples were assessed for mortality 7 days after infestation.

Diabrotica Balteata = test: Diabrotica balteata (corn root worm), maize sprouts, L2 larvae; conditions: 96 h, application rate 200 ppm, 4 days after infestation, read-out: effect in at least one of the two categories (mortality or growth inhibition)
Description: Example B2: Diabrotica Balteata (Corn Root Worm)
Maize sprouts placed onto an agar layer in 24-well microtiter plates were treated with aqueous test solutions prepared from 10′000 ppm DMSO stock solutions by spraying. After drying, the plates were infested with L2 larvae (6 to 10 per well). The samples were assessed for mortality and growth inhibition in comparison to untreated samples 4 days after infestation.

Spodoptera littoralis [2] = test: Spodoptera littoralis (Egyptian cotton leaf worm), cotton leaf discs, L1 larvae; conditions: foliar, 72 h, application rate 200 ppm, L1 larvae on cotton leaf discs, 3 days after infestation
Description: Example B8: Spodoptera littoralis (Egyptian Cotton Leaf Worm)
Cotton leaf discs were placed onto agar in 24-well microtiter plates and sprayed with aqueous test solutions prepared from 10′000 ppm DMSO stock solutions. After drying the leaf discs were infested with five L1 larvae. The samples were assessed for mortality, anti-feeding effect, and growth inhibition in comparison to untreated samples 3 days after infestation. Control of Spodoptera littoralis by a test sample is given when at least one of the categories mortality, anti-feedant effect, and growth inhibition is higher than the untreated sample.

Spodoptera littoralis [3] = test: Spodoptera littoralis (Egyptian cotton leaf worm), uptake by lettuce roots from agar, eggs; conditions: 144 h, test rate 12.5 ppm, lettuce root uptake, 6 days after infestation, read-out: effect in at least one of the three categories (mortality, anti-feeding, or growth inhibition)
Source text: Example B9: Spodoptera littoralis (Egyptian Cotton Leaf Worm)
Test compounds were applied by pipette from 10′000 ppm DMSO stock solutions into 24-well plates and mixed with agar. Lettuce seeds were placed onto the agar and the multi well plate was closed by another plate which contained also agar. After 7 days the compound was absorbed by the roots and the lettuce grew into the lid plate. The lettuce leaves were then cut off into the lid plate. Spodoptera eggs were pipetted through a plastic stencil onto a humid gel blotting paper and the lid plate was closed with it. The samples were assessed for mortality, anti-feedant effect and growth inhibition in comparison to untreated samples 6 days after infestation.

Myzus persicae [4] = test: Myzus persicae (green peach aphid) systemic activity, pea seedling roots; conditions: 144 h, test rate 24 ppm, 6 days after placing seedlings into test solutions
Tetranychus urticae = Tetranychus urticae (two-spotted spider mite) feeding/contact activity, bean leaf discs; conditions: foliar, 192 h, application rate 200 ppm, mixed population (mobile stages), 8 days after infestation
Description: Example B10: Tetranychus urticae (Two-Spotted Spider Mite): Feeding/Contact Activity
Bean leaf discs on agar in 24-well microtiter plates were sprayed with aqueous test solutions prepared from 10′000 ppm DMSO stock solutions. After drying the leaf discs were infested with a mite population of mixed ages. The samples were assessed for mortality on mixed population (mobile stages) 8 days after infestation.

Thrips tabaci = Thrips tabaci (onion thrips) feeding/contact activity, sunflower leaf discs; conditions: foliar, 144 h, application rate 200 ppm, population of mixed ages, 6 days after infestation
Description: Example B11: Thrips tabaci (Onion Thrips) Feeding/Contact Activity
as §1, with “10′000 ppm” for “10′000”, “thrips” for “Frankliniella”, “6” for “7”

Myzus persicae [5] = test: Myzus persicae (green peach aphid) feeding/contact activity, sunflower leaf discs; conditions: foliar, 144 h, application rate 200 ppm, 6 days after infestation
Description: Example B5: Myzus persicae (Green Peach Aphid): Feeding/Contact Activity
Sunflower leaf discs were placed onto agar in a 24-well microtiter plate and sprayed with aqueous test solutions prepared from 10′000 ppm DMSO stock solutions. After drying, the leaf discs were infested with an aphid population of mixed ages. The samples were assessed for mortality 6 days after infestation.

Bemisia tabaci = Bemisia tabaci (cotton white fly) feeding/contact activity, cotton leaf discs; conditions: foliar, 144 h, application rate 200 ppm, adult white flies, 6 days after incubation
Description: Example B1: Bemisia tabaci (Cotton White Fly): Feeding/Contact Activity
Cotton leaf discs were placed on agar in 24-well microtiter plates and sprayed with aqueous test solutions prepared from 10′000 ppm DMSO stock solutions. After drying the leaf discs were infested with adult white flies. The samples were checked for mortality 6 days after incubation.

Aedes aegypti = Aedes aegypti (yellow fever mosquito), dry deposit in 12 well plates, adult females; conditions: application rate 200 ppm in ethanol, after 48 h and/or 24 h
Description: Example B12: Aedes aegypti (Yellow Fever Mosquito)
(§2) Test solutions, at an application rate of 200 ppm in ethanol, were applied to 12 well tissue culture plates. Once the deposits were dry, five, two to five day old adult female Aedes aegypti were added to each well, and sustained with a 10% sucrose solution in a cotton wool plug. Assessment of knockdown was made one hour after introduction, and mortality was assessed at 24 and 48 hours after introduction.

Anopheles stephensi = Anopheles stephensi (Indian malaria mosquito), dry deposit in 12 well plates, adult females; conditions: application rate 200 ppm in ethanol, after 48 h and/or 24 h
Description: Example B13: Anopheles stephensi (Indian Malaria Mosquito)
as §2, with “Anopheles stephensi” for “Aedes aegypti”

Plutella xylostella = Plutella xylostella (diamond back moth), artificial diet, L2 larvae; conditions: 120 h, application rate 200 ppm, 5 days after infestation, read-out: effect in at least one of the two categories (mortality or growth inhibition)
Description: Example B7: Plutella xylostella (Diamond Back Moth)
24-well microtiter plates with artificial diet were treated with aqueous test solutions prepared from 10′000 ppm DMSO stock solutions by pipetting. After drying, the plates were infested with L2 larvae (10 to 15 per well). The samples were assessed for mortality and growth inhibition in comparison to untreated samples 5 days after infestation.

CCS(=O)(=O)c1cc(C(F)(F)F)cnc1-c1nc2cc(S(=O)(=O)C(F)(F)F)ncc2n1C [Compound P8, 2-[3-ethylsulfonyl-5-(trifluoromethyl)-2-pyridyl]-3-methyl-6-(trifluoromethylsulfonyl) imidazo[4,5-c]pyridine]
≥ 80%: percent effect (mortality or growth inhibition) at 200 ppm (Euschistus heros) | mortality at 200 ppm [1] | percent effect (mortality or growth inhibition) at 200 ppm (Diabrotica Balteata) | percent control (mortality, anti-feedant effect or growth inhibition) at 200 ppm (Spodoptera littoralis [2]) | percent effect (mortality, anti-feeding or growth inhibition) at 12.5 ppm (Spodoptera littoralis [3]) | mortality at 24 ppm (Myzus persicae [4]) | mortality at 200 ppm (Tetranychus urticae) | mortality at 200 ppm (Thrips tabaci) | mortality at 200 ppm (Myzus persicae [5]) | mortality at 200 ppm (Bemisia tabaci) | pest or weed control at 200 ppm (Aedes aegypti) | pest or weed control at 200 ppm (Anopheles stephensi) | percent effect (mortality or growth inhibition) at 200 ppm (Plutella xylostella)

CCS(=O)(=O)c1cc(C(F)(F)F)cnc1-c1nc2cc([S+]([O-])C(F)(F)F)ncc2n1C (stereo not drawn) [Compound P9, 2-[3-ethylsulfonyl-5-(trifluoromethyl)-2-pyridyl]-3-methyl-6-(trifluoromethylsulfinyl) imidazo[4,5-c]pyridine]
≥ 80%: percent effect (mortality or growth inhibition) at 200 ppm (Euschistus heros) | mortality at 200 ppm [1] | percent effect (mortality or growth inhibition) at 200 ppm (Diabrotica Balteata) | percent control (mortality, anti-feedant effect or growth inhibition) at 200 ppm (Spodoptera littoralis [2]) | percent effect (mortality, anti-feeding or growth inhibition) at 12.5 ppm (Spodoptera littoralis [3]) | mortality at 24 ppm (Myzus persicae [4]) | mortality at 200 ppm (Thrips tabaci) | mortality at 200 ppm (Myzus persicae [5]) | mortality at 200 ppm (Bemisia tabaci) | pest or weed control at 200 ppm (Aedes aegypti) | pest or weed control at 200 ppm (Anopheles stephensi) | percent effect (mortality or growth inhibition) at 200 ppm (Plutella xylostella)

CCS(=O)(=O)c1cc(C(F)(F)F)cnc1-c1nc2cc(SC(F)(F)F)ncc2n1C [Compound P10, 2-[3-ethylsulfonyl-5-(trifluoromethyl)-2-pyridyl]-3-methyl-6-(trifluoromethylsulfanyl)imidazo[4,5-c]pyridine]
≥ 80%: percent effect (mortality or growth inhibition) at 200 ppm (Euschistus heros) | mortality at 200 ppm [1] | percent effect (mortality or growth inhibition) at 200 ppm (Diabrotica Balteata) | percent control (mortality, anti-feedant effect or growth inhibition) at 200 ppm (Spodoptera littoralis [2]) | percent effect (mortality, anti-feeding or growth inhibition) at 12.5 ppm (Spodoptera littoralis [3]) | mortality at 24 ppm (Myzus persicae [4]) | mortality at 200 ppm (Thrips tabaci) | mortality at 200 ppm (Myzus persicae [5]) | mortality at 200 ppm (Bemisia tabaci) | pest or weed control at 200 ppm (Aedes aegypti) | pest or weed control at 200 ppm (Anopheles stephensi) | percent effect (mortality or growth inhibition) at 200 ppm (Plutella xylostella)

CCS(=O)(=O)c1cc(C(F)(F)F)cnc1-c1nc2cc(OCC(F)(F)F)ncc2n1C [Compound P14]
≥ 80%: percent effect (mortality or growth inhibition) at 200 ppm (Euschistus heros) | mortality at 24 ppm (Myzus persicae [4]) | mortality at 200 ppm (Myzus persicae [5])

CCS(=O)(=O)c1cc(C(F)(F)F)cnc1-c1nc2cc([S+]([O-])CC(F)(F)F)ncc2n1C (stereo not drawn) [Compound P15, 2-[3-Ethylsulfonyl-5-(trifluoromethyl)-2-pyridyl]-3-methyl-6-(2,2,2-trifluoroethylsulfinyl)imidazo[4,5-c]pyridine]
≥ 80%: percent effect (mortality or growth inhibition) at 200 ppm (Euschistus heros) | percent effect (mortality or growth inhibition) at 200 ppm (Diabrotica Balteata) | percent control (mortality, anti-feedant effect or growth inhibition) at 200 ppm (Spodoptera littoralis [2]) | percent effect (mortality, anti-feeding or growth inhibition) at 12.5 ppm (Spodoptera littoralis [3]) | mortality at 24 ppm (Myzus persicae [4]) | mortality at 200 ppm (Thrips tabaci) | mortality at 200 ppm (Myzus persicae [5]) | mortality at 200 ppm (Bemisia tabaci) | pest or weed control at 200 ppm (Aedes aegypti) | pest or weed control at 200 ppm (Anopheles stephensi) | percent effect (mortality or growth inhibition) at 200 ppm (Plutella xylostella)
